In ChEMBL document CHEMBL6083182, “Development of Peptide Paratope Mimics Derived from the Anti-ROR1 Antibody and Long-Acting Peptide-Drug Conjugates for Targeted Cancer Therapy” (J Med Chem, 2024):
Calls of active or inactive are those of the source. No cut-off for these calls is given here. *1 amine or outer side, *2 acyl side, *3 side chain or, on linkers, in order; H or OH if unused. Where a SMILES comes first, the peptide text is derived from it. [ ]: non-standard residue; d: D form. The star is where a group is joined. ξ: configuration not given here. Glutaryl(5-(14-O-Dox)) = COc1cccc2c1C(=O)c1c(O)c3c(c(O)c1C2=O)C[C@@](O)(C(=O)COC(=O)CCCC(=O)*)C[C@@H]3O[C@H]1C[C@H](N)[C@H](O)[C@H](C)O1; X7 = COc1cccc2c1C(=O)c1c(O)c3c(c(O)c1C2=O)C[C@@](O)(C(=O)CO)C[C@@H]3O[C@H]1C[C@H](NC(=O)CCCCCN2C(=O)CC(*)C2=O)[C@H](O)[C@H](C)O1; X5 = O=C(O)CCCCCCCCCCCCCCCCC(=O)NC(CCC(=O)NCCOCCOCC(=O)NCCOCCOCC(=O)NC(CCCCNC(=O)CCN1C(=O)CC(*)C1=O)C(=O)O)C(=O)O; X3 = CC(C)C(NC(=O)CCCCCN1C(=O)CC(*)C1=O)C(=O)NC(CCCNC(N)=O)C(=O)Nc1ccc(OCC2OC(n3ccc(N)nc3=O)C(F)(F)C2O)cc1; X6 = Nc1ccn(C2OC(COC(=O)CCCCCN3C(=O)CC(*)C3=O)C(O)C2(F)F)c(=O)n1; X2 = NC(=O)C[C@H](N[*:1])C(=O)C[C@@H](CC(=O)O)C(=O)[*:2]; X4 = Nc1ccn(C2OC(COC(=O)CCCC(=O)*)C(O)C2(F)F)c(=O)n1; C18 diacid = O=C(O)CCCCCCCCCCCCCCCCC(=O)*; ξγGlu = O=C(O)C(CCC(=O)[*:2])N[*:1]; AEEA = NCCOCCOCC(=O)O

Legend:
MDA-MB-231 = assay: Cytotoxicity against ROR1-positive human MDA-MB-231 cells assessed as decrease in cell viability incubated for 24 hrs by CCK-8 assay; type: functional, cell-based; settings: MDA-MB-231, 24 h
SK-HEP1 = assay: Cytotoxicity against human SK-HEP1 cells assessed as decrease in cell viability incubated for 24 hrs by CCK-8 assay; type: functional, cell-based; settings: SK-HEP1, 24 h
MCF7 [1] = assay: Cytotoxicity against ROR1-negative human MCF7 cells assessed as decrease in cell viability incubated for 24 hrs by CCK-8 assay; type: functional, cell-based; settings: MCF7, 24 h
[2] = Cytotoxicity against human MCF-10A cells assessed as decrease in cell viability incubated for 24 hrs by CCK-8 assay; type: toxicity, cell-based
[3] = target: T1, Inactive tyrosine-protein kinase transmembrane receptor ROR1 (Homo sapiens, UniProt Q01973); assay: Binding affinity to N-terminal His/GST-tagged recombinant human ROR1 (453 to 783 residues) extracted from baculovirus infected insect cells assessed as dissociation constant by SPR analysis
T1 sequence (Q01973 whole entry, the tested form may be a part): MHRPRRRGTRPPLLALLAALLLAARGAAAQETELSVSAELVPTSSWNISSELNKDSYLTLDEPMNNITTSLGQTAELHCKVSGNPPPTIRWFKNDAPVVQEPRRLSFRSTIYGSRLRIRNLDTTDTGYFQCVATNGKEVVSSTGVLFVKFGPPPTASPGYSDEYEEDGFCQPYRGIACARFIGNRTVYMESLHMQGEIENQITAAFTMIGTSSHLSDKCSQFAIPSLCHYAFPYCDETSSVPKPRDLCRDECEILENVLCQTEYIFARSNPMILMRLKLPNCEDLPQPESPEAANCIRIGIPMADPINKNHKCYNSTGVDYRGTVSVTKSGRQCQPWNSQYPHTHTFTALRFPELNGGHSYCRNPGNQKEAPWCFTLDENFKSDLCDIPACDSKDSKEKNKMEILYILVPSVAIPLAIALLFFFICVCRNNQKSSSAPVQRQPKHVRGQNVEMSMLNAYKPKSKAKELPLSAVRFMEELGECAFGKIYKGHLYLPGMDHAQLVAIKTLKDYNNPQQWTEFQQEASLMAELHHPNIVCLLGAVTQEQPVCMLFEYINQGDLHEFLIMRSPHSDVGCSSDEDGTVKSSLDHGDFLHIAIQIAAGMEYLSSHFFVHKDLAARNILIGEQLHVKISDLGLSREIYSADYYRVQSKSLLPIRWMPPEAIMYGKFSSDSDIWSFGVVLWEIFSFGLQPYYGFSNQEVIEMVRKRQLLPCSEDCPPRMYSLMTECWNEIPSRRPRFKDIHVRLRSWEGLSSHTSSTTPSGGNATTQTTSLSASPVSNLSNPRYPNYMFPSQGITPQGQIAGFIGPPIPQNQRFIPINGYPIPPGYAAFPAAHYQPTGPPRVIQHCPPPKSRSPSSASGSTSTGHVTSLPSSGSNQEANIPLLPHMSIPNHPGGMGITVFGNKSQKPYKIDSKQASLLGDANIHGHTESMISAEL

[4] = target: T1, Inactive tyrosine-protein kinase transmembrane receptor ROR1; assay: Binding affinity to ROR1 positive human MDA-MB-231 cells at 10 uM administered as FITC-labeled compound and measured after 30 mins by Hoechst 33342 staining based confocal fluorescence microscopic analysis; type: cell-based
MCF7 [5] = assay: Binding affinity to ROR1 negative human MCF7 cells at 10 uM administered as FITC-labeled compound and measured after 30 mins by Hoechst 33342 staining based confocal fluorescence microscopic analysis; type: functional, cell-based
Homo sapiens = species: Homo sapiens; assay: Binding affinity to CD16A (unknown origin) by SPR analysis

Compound	IC50 (MDA-MB-231)	IC50 (SK-HEP1)	IC50 (MCF7 [1])	IC50 at 24 h [2]	Kd [3]	Activity [4]	Activity (MCF7 [5])	Activity (Homo sapiens)
CC[C@H](C)[C@H](NC(=O)[C@H](CC(=O)O)NC(=O)[C@H](CO)NC(=O)CNC(=O)[C@H](CSC1CC(=O)N(CCC(=O)NCCCCC(NC(=O)COCCOCCNC(=O)COCCOCCNC(=O)CCC(NC(=O)CCCCCCCCCCCCCCCCC(=O)O)C(=O)O)C(=O)O)C1=O)NC(=O)CNC(=O)[C@H](CCCCN)NC(=O)CCCC(=O)OCC1OC(n2ccc(N)nc2=O)C(F)(F)C1O)C(=O)N[C@@H](CC(N)=O)C(=O)N[C@@H](CC(=O)O)C(=O)N[C@@H](CCCNC(=N)N)C(=O)N[C@@H](CCC(N)=O)C(=O)N[C@H](C(=O)N1CCC[C@H]1C(=O)NCC(=O)N[C@@H](Cc1ccc(O)cc1)C(=O)N[C@@H](CO)C(=O)N[C@H](C(=O)N[C@@H](Cc1ccc(O)cc1)C(=O)N[C@@H](Cc1c[nH]c2ccccc12)C(=O)NCC(=O)N[C@@H](CC(=O)O)C(=O)N[C@@H](Cc1ccccc1)C(N)=O)[C@@H](C)O)[C@@H](C)CC (some centres not stated) (X4-KGC(X5)GSDINDRQIPGYSTYWGDF-NH2)	0.301 µM	7.54 µM	17.8 µM	27.9 µM	0.0398 µM			
CC[C@H](C)[C@H](NC(=O)[C@H](CC(=O)O)NC(=O)[C@H](CO)NC(=O)CNC(=O)[C@H](CSC1CC(=O)N(CCCCCC(=O)NC(C(=O)NC(CCCNC(N)=O)C(=O)Nc2ccc(OCC3OC(n4ccc(N)nc4=O)C(F)(F)C3O)cc2)C(C)C)C1=O)NC(=O)CNC(=O)[C@H](CCCCN)NC(=O)COCCOCCNC(=O)COCCOCCNC(=O)CCC(NC(=O)CCCCCCCCCCCCCCCCC(=O)O)C(=O)O)C(=O)N[C@@H](CC(N)=O)C(=O)C[C@@H](CC(=O)O)C(=O)N[C@@H](CCCNC(=N)N)C(=O)N[C@@H](CCC(N)=O)C(=O)N[C@H](C(=O)N1CCC[C@H]1C(=O)NCC(=O)N[C@@H](Cc1ccc(O)cc1)C(=O)N[C@@H](CO)C(=O)N[C@H](C(=O)N[C@@H](Cc1ccc(O)cc1)C(=O)N[C@@H](Cc1c[nH]c2ccccc12)C(=O)NCC(=O)N[C@@H](CC(=O)O)C(=O)N[C@@H](Cc1ccccc1)C(N)=O)[C@@H](C)O)[C@@H](C)CC (some centres not stated) ({C18 diacid-ξγGlu-AEEA-AEEA}-KGC(X3)GSDI[X2]RQIPGYSTYWGDF-NH2)	6.79 µM	1.23 µM	> 50 µM	14.6 µM	0.0285 µM			
CC[C@H](C)[C@H](NC(=O)[C@H](CC(=O)O)NC(=O)[C@H](CO)NC(=O)CNC(=O)[C@H](CSC1CC(=O)N(CCCCCC(=O)OCC2OC(n3ccc(N)nc3=O)C(F)(F)C2O)C1=O)NC(=O)CNC(=O)[C@H](CCCCN)NC(=O)COCCOCCNC(=O)COCCOCCNC(=O)CCC(NC(=O)CCCCCCCCCCCCCCCCC(=O)O)C(=O)O)C(=O)N[C@@H](CC(N)=O)C(=O)N[C@@H](CC(=O)O)C(=O)N[C@@H](CCCNC(=N)N)C(=O)N[C@@H](CCC(N)=O)C(=O)N[C@H](C(=O)N1CCC[C@H]1C(=O)NCC(=O)N[C@@H](Cc1ccc(O)cc1)C(=O)N[C@@H](CO)C(=O)N[C@H](C(=O)N[C@@H](Cc1ccc(O)cc1)C(=O)N[C@@H](Cc1c[nH]c2ccccc12)C(=O)NCC(=O)N[C@@H](CC(=O)O)C(=O)N[C@@H](Cc1ccccc1)C(N)=O)[C@@H](C)O)[C@@H](C)CC (some centres not stated) ({C18 diacid-ξγGlu-AEEA-AEEA}-KGC(X6)GSDINDRQIPGYSTYWGDF-NH2)	15.8 µM	26 µM	16.6 µM	30.1 µM	0.124 µM			
CC[C@H](C)[C@H](NC(=O)[C@H](CC(=O)O)NC(=O)[C@H](CO)NC(=O)CNC(=O)[C@H](CSC1CC(=O)N(CCCCCC(=O)N[C@H]2C[C@H](O[C@H]3C[C@](O)(C(=O)CO)Cc4c(O)c5c(c(O)c43)C(=O)c3c(OC)cccc3C5=O)O[C@@H](C)[C@H]2O)C1=O)NC(=O)CNC(=O)[C@H](CCCCN)NC(=O)COCCOCCNC(=O)COCCOCCNC(=O)[C@H](CCC(=O)O)NC(=O)CCCCCCCCCCCCCCCCC(=O)O)C(=O)N[C@@H](CC(N)=O)C(=O)N[C@@H](CC(=O)O)C(=O)N[C@@H](CCCNC(=N)N)C(=O)N[C@@H](CCC(N)=O)C(=O)N[C@H](C(=O)N1CCC[C@H]1C(=O)NCC(=O)N[C@@H](Cc1ccc(O)cc1)C(=O)N[C@@H](CO)C(=O)N[C@H](C(=O)N[C@@H](Cc1ccc(O)cc1)C(=O)N[C@@H](Cc1c[nH]c2ccccc12)C(=O)NCC(=O)N[C@@H](CC(=O)O)C(=O)N[C@@H](Cc1ccccc1)C(N)=O)[C@@H](C)O)[C@@H](C)CC (some centres not stated) ({C18 diacid}-E[AEEA][AEEA]KGC(X7)GSDINDRQIPGYSTYWGDF-NH2)	14.6 µM	20 µM	35.6 µM	27.3 µM	0.152 µM			
CC[C@H](C)[C@H](NC(=O)[C@H](CC(=O)O)NC(=O)[C@H](CO)NC(=O)CNC(=O)[C@H](CSC1CC(=O)N(CCC(=O)NCCCCC(NC(=O)COCCOCCNC(=O)COCCOCCNC(=O)CCC(NC(=O)CCCCCCCCCCCCCCCCC(=O)O)C(=O)O)C(=O)O)C1=O)NC(=O)CNC(=O)[C@H](CCCCN)NC(=O)CCCC(=O)OCC(=O)[C@]1(O)Cc2c(O)c3c(c(O)c2[C@@H](O[C@H]2C[C@H](N)[C@H](O)[C@H](C)O2)C1)C(=O)c1c(OC)cccc1C3=O)C(=O)N[C@@H](CC(N)=O)C(=O)N[C@@H](CC(=O)O)C(=O)N[C@@H](CCCNC(=N)N)C(=O)N[C@@H](CCC(N)=O)C(=O)N[C@H](C(=O)N1CCC[C@H]1C(=O)NCC(=O)N[C@@H](Cc1ccc(O)cc1)C(=O)N[C@@H](CO)C(=O)N[C@H](C(=O)N[C@@H](Cc1ccc(O)cc1)C(=O)N[C@@H](Cc1c[nH]c2ccccc12)C(=O)NCC(=O)N[C@@H](CC(=O)O)C(=O)N[C@@H](Cc1ccccc1)C(N)=O)[C@@H](C)O)[C@@H](C)CC (some centres not stated) ({Glutaryl(5-(14-O-Dox))}-KGC(X5)GSDINDRQIPGYSTYWGDF-NH2)	2.83 µM	1.27 µM	16.9 µM	10.1 µM	0.0665 µM			
Nc1ccn([C@@H]2O[C@H](CO)[C@@H](O)C2(F)F)c(=O)n1 [GEMCITABINE]	1.78 µM	3.67 µM	4.79 µM	3.23 µM				
H-GYSTYWGDF-NH2					0.147 µM			
H-INSGPGYSTYYGDF-NH2					0.00121 µM	Active	inactive	Not active; Abnormal Binding Affinity Curves Observed
H-INSGPSDINDRQIPGYSTYWGDF-NH2					0.261 µM			
H-INSGPSDINDYPI-NH2					0.0405 µM			
H-INSGPSDINDYPIPGYSTYYGDF-NH2					0.713 µM			
H-SDINDRQI-NH2					0.0265 µM			
H-SDINDYPIPGYSTYYGDF-NH2					0.00298 µM	Active	inactive	Not active; Abnormal Binding Affinity Curves Observed
